# pIC50: −log10 of the molar value.
# Target: HEK-293 cells transfected with dox-inducible human wild type FGFR3 (Homo sapiens (Human), UniProt P22607)
# Assay: FGFR3 pFGFR cell assay (ELISA)
# Assay type: cell-based
# Details: HEK-293 dox-inducible FGFR3, 1 hour compound, 100 ng/ml FGF-acidic
# Method: FGFR3 pFGFR Cell Assay: • HEK-293 cells transfected with dox-inducible human wild type FGFR3 (SEQ ID NO: 5) were plated in a collagen or poly-D-lysine coated 96 well flat bottom plates at 4×10^5 cells/well in complete DMEM medium containing 10% FBS and 1 μg/ml doxycycline and allowed to attach for 24 h at 37° C., 5% CO2. Cells were treated with compound using 1:3 serial dilutions with a top final concentration of 5 μM. Compound was incubated on cells for 1 hour at 37° C., 5% CO2. Cells were then stimulated with a final concentration of 100 ng/ml human FGF-acidic for 5 minutes at 37° C., 5% CO2. Medium was removed and cells were lysed with lysis buffer containing phosphatase and protease inhibitors. Phospho FGFR3 was measured by ELISA (R&D Systems cat DYC2719). The ELISA captures total FGFR3 and detects total phospho tyrosine. Optical density was measured for each well using a Versamax reader at a wavelength of 450 nm. 100 POC was determined using no test compounds and 0 POC was determined using a control compound. The POC values were fit to a 4-parameter logistic curve as a function of the concentration of the compound, and the IC50 value is the point where the curve crosses 50 POC.
# HEK-293 cells transfected with dox-inducible human wild type FGFR3, sequence (P22607 23-806): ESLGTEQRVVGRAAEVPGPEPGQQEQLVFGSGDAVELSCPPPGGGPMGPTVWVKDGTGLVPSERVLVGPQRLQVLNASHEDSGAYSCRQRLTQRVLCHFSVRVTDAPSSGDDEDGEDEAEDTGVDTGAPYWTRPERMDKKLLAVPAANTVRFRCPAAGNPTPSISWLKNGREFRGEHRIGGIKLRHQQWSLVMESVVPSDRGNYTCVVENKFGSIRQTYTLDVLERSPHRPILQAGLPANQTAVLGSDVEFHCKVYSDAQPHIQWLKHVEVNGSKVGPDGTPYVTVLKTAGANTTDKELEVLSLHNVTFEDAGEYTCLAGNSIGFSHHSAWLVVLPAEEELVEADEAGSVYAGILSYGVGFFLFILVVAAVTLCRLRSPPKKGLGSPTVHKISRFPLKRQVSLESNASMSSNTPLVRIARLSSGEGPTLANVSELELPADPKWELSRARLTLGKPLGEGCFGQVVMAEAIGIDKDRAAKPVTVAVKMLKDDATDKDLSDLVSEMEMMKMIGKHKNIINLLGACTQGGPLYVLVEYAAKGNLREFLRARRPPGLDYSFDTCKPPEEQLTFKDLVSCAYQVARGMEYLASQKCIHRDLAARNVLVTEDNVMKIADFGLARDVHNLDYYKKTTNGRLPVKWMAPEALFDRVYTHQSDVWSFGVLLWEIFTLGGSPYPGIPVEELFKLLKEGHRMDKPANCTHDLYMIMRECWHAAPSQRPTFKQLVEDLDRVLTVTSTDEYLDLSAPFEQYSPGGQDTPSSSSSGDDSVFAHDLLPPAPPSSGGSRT
row,pIC50,SMILES
1,7.68,"C=CC(=O)N1CC(C(=O)N2CCN(c3ccc(-c4cc(OC)c5c(C#N)cnn5c4)cc3)CC2)C1 [Example 100, 6-(4-(4-(1-acryloylazetidine-3-carbonyl)piperazin-1-yl)phenyl)-4-methoxypyrazolo[1,5-a]pyridine-3-carbonitrile]"
2,7.41,"C=CC(=O)N1CCC(F)(C(=O)N2CCC(n3cc(-c4cc(OC)c5c(C#N)cnn5c4)cn3)CC2)CC1 [Example 13, 6-(1-(1-(1-acryloyl-4-fluoropiperidine-4-carbonyl)piperidin-4-yl)-1H-pyrazol-4-yl)-4-methoxypyrazolo[1,5-a]pyridine-3-carbonitrile]"
3,7.42,"C=CC(=O)N(C)c1ccc(CN2CCC(n3cc(-c4cc(OC)c5c(C#N)cnn5c4)cn3)CC2)cc1 [Example 10, N-(4-((4-(4-(3-cyano-4-methoxypyrazolo[1,5-a]pyridin-6-yl)-1H-pyrazol-1-yl)piperidin-1-yl)methyl)phenyl)-N-methylacrylamide]"
4,7.16,"C=CC(=O)N1CC(C(=O)N2CCC(c3ccc(-c4cc(OC)c5c(C#N)cnn5c4)cc3)CC2)C1 [Example 101, 6-(4-(1-(1-acryloylazetidine-3-carbonyl)piperidin-4-yl)phenyl)-4-methoxypyrazolo[1,5-a]pyridine-3-carbonitrile]"
5,7.51,"C=CC(=O)N1CC(CN2CCC(n3cc(-c4cc(OC)c5c(C#N)cnn5c4)cn3)CC2)C1 [Example 132, 6-(1-(1-((1-acryloylazetidin-3-yl)methyl)piperidin-4-yl)-1H-pyrazol-4-yl)-4-methoxypyrazolo[1,5-a]pyridine-3-carbonitrile]"
6,7.14,"C=CC(=O)N1CC2(CCN(C(=O)N3CCC(n4cc(-c5cc(OC)c6c(C#N)cnn6c5)cn4)CC3)CC2)C1 [Example 6, 6-(1-(1-(2-acryloyl-2,7-diazaspiro[3.5]nonane-7-carbonyl)piperidin-4-yl)-1H-pyrazol-4-yl)-4-methoxypyrazolo[1,5-a]pyridine-3-carbonitrile]"
7,7.37,"C=CC(=O)N1CC(C(=O)N2CCN(c3ccc(-c4cc(OC)c5c(C#N)cnn5c4)cn3)CC2)C1 [Example 111, 6-(6-(4-(1-acryloylazetidine-3-carbonyl)piperazin-1-yl)pyridin-3-yl)-4-methoxypyrazolo[1,5-a]pyridine-3-carbonitrile]"
8,7.55,"C=CC(=O)Nc1ccc(CN2CCC(n3cc(-c4cc(OC)c5c(C#N)cnn5c4)cn3)CC2)cc1 [Example 9, N-(4-((4-(4-(3-cyano-4-methoxypyrazolo[1,5-a]pyridin-6-yl)-1H-pyrazol-1-yl)piperidin-1-yl)methyl)phenyl)acrylamide]"
9,7.77,"C#CC(=O)N1CC(C(=O)N2CCC(n3cc(-c4cc(OC)c5c(C#N)cnn5c4)cn3)CC2)C1 [Example 138, 4-methoxy-6-(1-(1-(1-propioloylazetidine-3-carbonyl)piperidin-4-yl)-1H-pyrazol-4-yl)pyrazolo[1,5-a]pyridine-3-carbonitrile]"
10,7.24,"C=CC(=O)N1CC(C)(C(=O)N2CCC(n3cc(-c4cc(OC)c5c(Cl)cnn5c4)cn3)CC2)C1 [Example 123, 1-(3-(4-(4-(3-chloro-4-methoxypyrazolo[1,5-a]pyridin-6-yl)-1H-pyrazol-1-yl)piperidine-1-carbonyl)-3-methylazetidin-1-yl)prop-2-en-1-one]"
11,7.64,"C=CC(=O)N1CC(C(=O)N2CCC(n3cc(-c4cc(C(C)C)c5c(C#N)cnn5c4)cn3)CC2)C1 [Example 129, 6-(1-(1-(1-acryloylazetidine-3-carbonyl)piperidin-4-yl)-1H-pyrazol-4-yl)-4-isopropylpyrazolo[1,5-a]pyridine-3-carbonitrile]"
12,7.28,"COc1cc(-c2cnn(C3CCN(CC4CN(C(=O)/C=C/CN5CCCCC5)C4)CC3)c2)cn2ncc(C#N)c12 [Example 175, (E)-4-methoxy-6-(1-(1-((1-(4-(piperidin-1-yl)but-2-enoyl)azetidin-3-yl)methyl)piperidin-4-yl)-1H-pyrazol-4-yl)pyrazolo[1,5-a]pyridine-3-carbonitrile]"
13,7.10,"COc1cc(-c2cnn(C3CCN(CC4CN(C(=O)/C=C/CN(C)C)C4)CC3)c2)cn2ncc(C#N)c12 [Example 146, (E)-6-(1-(1-((1-(4-(dimethylamino)but-2-enoyl)azetidin-3-yl)methyl)piperidin-4-yl)-1H-pyrazol-4-yl)-4-methoxypyrazolo [1,5-a]pyridine-3-carbonitrile]"
14,7.70,"C=CC(=O)N1CC(C(=O)N2CCC(n3cc(-c4cc(OCC)c5c(C#N)cnn5c4)cn3)CC2)C1 [Example 126, 6-(1-(1-(1-acryloylazetidine-3-carbonyl)piperidin-4-yl)-1H-pyrazol-4-yl)-4-ethoxypyrazolo[1,5-a]pyridine-3-carbonitrile]"
15,7.82,"C=CC(=O)N1CC(C(=O)N2CCC(n3cc(-c4cc(-c5ccccc5F)c5c(C#N)cnn5c4)cn3)CC2)C1 [Example 131, 6-(1-(1-(1-acryloylazetidine-3-carbonyl)piperidin-4-yl)-1H-pyrazol-4-yl)-4-(2-fluorophenyl)pyrazolo[1,5-a]pyridine-3-carbonitrile]"
16,7.74,"C=CC(=O)N1CC(C(=O)N2CCC(n3cc(-c4cc(OC(C)C)c5c(C#N)cnn5c4)cn3)CC2)C1 [Example 127, 6-(1-(1-(1-acryloylazetidine-3-carbonyl)piperidin-4-yl)-1H-pyrazol-4-yl)-4-isopropoxypyrazolo[1,5-a]pyridine-3-carbonitrile]"
17,7.62,"C=CC(=O)N1CC(OC)(C(=O)N2CCC(n3cc(-c4cc(OC)c5c(Cl)cnn5c4)cn3)CC2)C1 [Example 124, 1-(3-(4-(4-(3-chloro-4-methoxypyrazolo[1,5-a]pyridin-6-yl)-1H-pyrazol-1-yl)piperidine-1-carbonyl)-3-methoxyazetidin-1-yl)prop-2-en-1-one]"
18,5.95,"C=CC(=O)N1CC(C(=O)N2CCC(n3cnc(-c4cc(OC)c5c(C#N)cnn5c4)c3)CC2)C1 [Example 98, 6-(1-(1-(1-acryloylazetidine-3-carbonyl)piperidin-4-yl)-1H-imidazol-4-yl)-4-methoxypyrazolo[1,5-a]pyridine-3-carbonitrile]"
19,6.96,"C=CC(=O)N1C[C@H]2CN(C(=O)N3CCC(n4cc(-c5cc(OC)c6c(C#N)cnn6c5)cn4)CC3)C[C@H]21 [Example 7, 6-(1-(1-((1S,5S)-6-acryloyl-3,6-diazabicyclo[3.2.0]heptane-3-carbonyl)piperidin-4-yl)-1H-pyrazol-4-yl)-4-methoxypyrazolo[1,5-a]pyridine-3-carbonitrile]"
20,6.28,"COc1cc(-c2cnn(C3CCN(C(=O)C4CN(C(=O)/C=C/CN(C)C)C4)CC3)c2)cn2ncc(C#N)c12 [Example 143, (E)-6-(1-(1-(1-(4-(dimethylamino)but-2-enoyl)azetidine-3-carbonyl)piperidin-4-yl)-1H-pyrazol-4-yl)-4-methoxypyrazolo [1,5-a]pyridine-3-carbonitrile]"
21,6.59,"COc1cc(-c2cnn(C3CCN(C(=O)C4CN(C(=O)/C=C/CN5CCCCC5)C4)CC3)c2)cn2ncc(C#N)c12 [Example 145, (E)-4-methoxy-6-(1-(1-(1-(4-(piperidin-1-yl)but-2-enoyl)azetidine-3-carbonyl)piperidin-4-yl)-1H-pyrazol-4-yl)pyrazolo[1,5-a]pyridine-3-carbonitrile]"
22,7.15,"C=CC(=O)N1CC(C(=O)N2CCC(n3cc(-c4cc(OC)c5c(Cl)cnn5c4)cn3)CC2)C1 [Example 122, 1-(3-(4-(4-(3-chloro-4-methoxypyrazolo[1,5-a]pyridin-6-yl)-1H-pyrazol-1-yl)piperidine-1-carbonyl)azetidin-1-yl)prop-2-en-1-one]"
23,6.86,COc1cc(-c2cnn(C3CCN(C(=O)C4CN(C(=O)/C=C/CN(C)C)C4)CC3)c2)cn2ncc(Cl)c12 [Example 174]
24,6.53,"C=CC(=O)N1CC(C(=O)N2CCC(n3cc(-c4cc(-c5ccc(NC(=O)C6CC6)cc5F)c5c(C#N)cnn5c4)cn3)CC2)C1 [Example 130, N-(4-(6-(1-(1-(1-acryloylazetidine-3-carbonyl)piperidin-4-yl)-1H-pyrazol-4-yl)-3-cyanopyrazolo[1,5-a]pyridin-4-yl)-3-fluorophenyl)cyclopropane-carboxamide]"
25,6.83,"C=CC(=O)N1CC2(CCN(C(=O)N3CCC(n4cc(-c5cc(OC)c6c(C#N)cnn6c5)cn4)CC3)C2)C1 [Example 8, 6-(1-(1-(2-acryloyl-2,6-diazaspiro[3.4]octane-6-carbonyl)piperidin-4-yl)-1H-pyrazol-4-yl)-4-methoxypyrazolo[1,5-a]pyridine-3-carbonitrile]"

row,SMILES,pIC50
1,"C=CC(=O)N1CC(C(=O)N2CCC(n3cc(-c4cc(OCC(C)C)c5c(C#N)cnn5c4)cn3)CC2)C1 [Example 128, 6-(1-(1-(1-acryloylazetidine-3-carbonyl)piperidin-4-yl)-1H-pyrazol-4-yl)-4-isobutoxypyrazolo[1,5-a]pyridine-3-carbonitrile]",7.55
2,"C=CC(=O)N1CC(C(=O)N2CCC(n3cc(-c4cc(OC5CCC5)c5c(C#N)cnn5c4)cn3)CC2)C1 [Example 125, 6-(1-(1-(1-acryloylazetidine-3-carbonyl)piperidin-4-yl)-1H-pyrazol-4-yl)-4-cyclobutoxypyrazolo[1,5-a]pyridine-3-carbonitrile]",8.05

# From US12180207B2 (ARRAY BIOPHARMA INC., priority 2018, dated 2024)
